Assay results taken from the supplement of paper PMC12137928.
Structures can show the parent of a compound that is named as a salt.

Test system: HCT116
Settings: 72 h
Outline: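 In 1536-well plates, 250 HCT116 cells per well were seeded and left for 5 h to attach. Luminescence from CellTiter-Glo was set against vehicle (0%) and positive control (-100%), and pattern correction was applied. IC50 and maximal efficacy come from four-parameter Hill fitting.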

SMILES	IC50 cell viability (ICRF193 0 nM)	IC50 cell viability (ICRF193 200 nM)
CC(C)(Oc1ccc(C2CC2(Cl)Cl)cc1)C(=O)O (configuration not stated) [Ciprofibrate]	> 45.8 µM	> 45.8 µM
CCCCCCCN(CC)CCCC(O)c1ccc(NS(C)(=O)=O)cc1 (configuration not stated) [Ibutilide fumarate]	> 45.8 µM	> 45.8 µM
CC(C)c1ccc2oc3nc(N)c(C(=O)O)cc3c(=O)c2c1 [Amlexanox]	> 45.8 µM	> 45.8 µM
CO/N=C(\C(=O)N[C@@H]1C(=O)N2C(C(=O)OCOC(=O)C(C)(C)C)=C(/C=C\c3scnc3C)CS[C@H]12)c1csc(N)n1 [Cefditoren (Pivoxil)]	> 45.8 µM	> 45.8 µM
Cc1c(Nc2ncccc2C(=O)O)cccc1C(F)(F)F [Flunixin meglumine]	> 45.8 µM	> 45.8 µM
C[C@]1(COc2ccc(N3CCC(Oc4ccc(OC(F)(F)F)cc4)CC3)cc2)Cn2cc([N+](=O)[O-])nc2O1 [Delamanid]	> 45.8 µM	> 45.8 µM
CN1CCC(=C2c3ccccc3CC(=O)c3sccc32)CC1 [Ketotifen]	> 45.8 µM	> 45.8 µM
COC(=O)c1cncn1C(C)c1ccccc1 (configuration not stated) [Metomidate hydrochloride]	> 45.8 µM	> 45.8 µM
O=C(NC[C@H]1CN(c2ccc(N3CCOCC3=O)cc2)C(=O)O1)c1ccc(Cl)s1 [Rivaroxaban]	> 45.8 µM	> 45.8 µM
CCOc1cc([C@@H](CS(C)(=O)=O)N2C(=O)c3cccc(NC(C)=O)c3C2=O)ccc1OC	> 45.8 µM	> 45.8 µM
CCOC(=O)c1cccc(N)c1 [Ethyl 3-aminobenzoate methanesulfonic acid salt]	> 45.8 µM	> 45.8 µM
N=C(N)NCCN1CCCCCCC1 [Guanethidine sulfate]	> 45.8 µM	> 45.8 µM
C[C@]12CCC3=C4CCC(=O)C=C4CC[C@H]3[C@@H]1CC[C@@]2(O)CC#N [Dienogest]	> 45.8 µM	> 45.8 µM
O=C(O)CN(CCN(CC(=O)O)CC(=O)O)CCN(CC(=O)O)CC(=O)O [Pentetic acid]	> 45.8 µM	> 45.8 µM
CC(C)COC(=O)OCN1C(=O)CN(CCN2CC(=O)N(COC(=O)OCC(C)C)C(=O)C2)CC1=O [Sobuzoxane]	> 45.8 µM	> 45.8 µM
CN(C(=O)CO)c1c(I)c(C(=O)NCC(O)CO)c(I)c(C(=O)NCC(O)CO)c1I (configuration not stated) [Iomeprol]	> 45.8 µM	> 45.8 µM
CCCCCCCCCCCCCCCC(=O)O[C@@H]1[C@@H](O)[C@@H](O)[C@@H]([C@H](NC(=O)[C@@H]2C[C@@H](CCC)CN2C)[C@H](C)Cl)O[C@@H]1SC [Clindamycin palmitate HCl]	> 45.8 µM	> 45.8 µM
Cc1nc2n(c(=O)c1CCN1CCC(c3noc4cc(F)ccc34)CC1)CCCC2 [Risperidone]	> 45.8 µM	> 45.8 µM
CCCN(CCC)C(=O)C(CCC(=O)O)NC(=O)c1ccccc1 (configuration not stated) [Proglumide]	> 45.8 µM	> 45.8 µM
O=C(O)CSc1nnc(Br)n1-c1ccc(C2CC2)c2ccccc12 [Lesinurad (sodium)]	> 45.8 µM	> 45.8 µM
NC(=O)OCCCc1ccccc1 [Phenprobamate]	> 45.8 µM	> 45.8 µM

SMILES	IC50 cell viability (ICRF193 0 nM)	IC50 cell viability (ICRF193 200 nM)
CNC(=O)c1c(I)c(NC(=O)CCCCC(=O)Nc2c(I)c(C(=O)O)c(I)c(C(=O)NC)c2I)c(I)c(C(=O)O)c1I [Iocarmic acid]	> 45.8 µM	> 45.8 µM
COc1cc(NS(=O)(=O)c2ccc(N)cc2)nc(C)n1 [Sulfamethomidine]	> 45.8 µM	> 45.8 µM
Cc1cc(O)ccc1C(C)(C)C [P-T-BUTYL-M-CRESOL]	> 45.8 µM	> 45.8 µM
CN(C)CCCOC1(Cc2ccccc2)CCCCCC1 [Bencyclane]	> 45.8 µM	> 45.8 µM
O=P(O)(O)OC(CO)CO [beta-Glycerol phosphate disodium salt pentahydrate]	> 45.8 µM	> 45.8 µM
CC1(C)C[C@@H]1C(=O)N/C(=C\CCCCSC[C@H](N)C(=O)O)C(=O)O [Cilastatin]	> 45.8 µM	> 45.8 µM
CC(=O)[C@H]1CC[C@H]2[C@@H]3C[C@H](C)C4=CC(=O)CC[C@]4(C)[C@H]3[C@@H](O)C[C@]12C [Medrysone]	> 45.8 µM	> 45.8 µM
O=C1C[C@@H]2OCC=C3CN4CC[C@]56c7ccccc7N1[C@H]5[C@H]2[C@H]3C[C@H]46 [Strychnine]	> 45.8 µM	> 45.8 µM
C=CCOc1ccccc1OCC(O)CNC(C)C (configuration not stated) [Oxprenolol hydrochloride]	> 45.8 µM	> 45.8 µM
NS(=O)(=O)c1cc2c(cc1Cl)NC(C(Cl)Cl)NS2(=O)=O (configuration not stated) [Trichlormethiazide]	> 45.8 µM	> 45.8 µM
CC[N+](C)(CC)CCOC(=O)C(O)(c1ccccc1)c1ccccc1 [Benzactyzine methobromide]	> 45.8 µM	> 45.8 µM
Cc1ccc(C(=O)C(=O)O)cc1C [Sodium 3, 4-dimethylphenyl-glyoxylate]	> 45.8 µM	> 45.8 µM
C=C1/C(=C\C=C2/CCC[C@]3(C)[C@@H]([C@H](C)CCCC(C)(C)O)CC[C@@H]23)C[C@@H](O)[C@@H](OCCCO)[C@@H]1O [Eldecalcitol]	> 45.8 µM	> 45.8 µM
CO/N=C(\C(=O)N[C@@H]1C(=O)N2C(C(=O)O)=C(CSc3cnns3)CS[C@H]12)c1csc(N)n1 [Cefuzonam hydrochloride]	> 45.8 µM	> 45.8 µM
Cc1ccc([C@@H]2O[C@H](CO)[C@@H](O)[C@H](O)[C@H]2O)cc1Cc1ccc(-c2ccc(F)cc2)s1 [Canagliflozin]	> 45.8 µM	> 45.8 µM
CC/C=C\C/C=C\C/C=C\C/C=C\C/C=C\CCCC(=O)O [Eicosapentaenoic Acid]	> 45.8 µM	> 45.8 µM
OCCN(CCO)c1nc(N2CCCCC2)c2nc(N(CCO)CCO)nc(N3CCCCC3)c2n1 [Dipyridamole]	> 45.8 µM	> 45.8 µM
Cc1ncc(CSSCc2cnc(C)c(O)c2CO)c(CO)c1O [Pyrithioxin dihydrochloride]	> 45.8 µM	> 45.8 µM
Nc1ccc(S(=O)(=O)Nc2cnc3ccccc3n2)cc1 [Sulfaquinoxaline]	> 45.8 µM	> 45.8 µM
CC(C)(S)C(=O)N[C@@H](CS)C(=O)O [Bucillamine]	> 45.8 µM	> 45.8 µM
CC(=C(CCOC(=O)C(C)C)SSC(CCOC(=O)C(C)C)=C(C)N(C=O)Cc1cnc(C)nc1N)N(C=O)Cc1cnc(C)nc1N [Bisibutiamine]	> 45.8 µM	> 45.8 µM

SMILES	IC50 cell viability (ICRF193 0 nM)	IC50 cell viability (ICRF193 200 nM)
COC([CH2][Hg+])CNC(=O)c1ccccc1OCC(=O)O.[OH-] (configuration not stated) [Mersalyl acid]	> 45.8 µM	> 45.8 µM
CCCCCCCC(=O)OCC(O)CO (configuration not stated) [2,3-Dihydroxypropyl octanoate]	> 45.8 µM	> 45.8 µM
C[C@]12CC[C@@H]3c4ccc(O)cc4CC[C@H]3[C@@H]1CC[C@@H]2OC(=O)CCC1CCCC1 [Estradiol cypionate]	> 45.8 µM	> 45.8 µM
Nc1nc(CC(=O)Nc2ccc(CCNC[C@H](O)c3ccccc3)cc2)cs1 [Mirabegron]	> 45.8 µM	> 45.8 µM
COC(=O)N/N=C/c1c[n+]([O-])c2ccccc2[n+]1[O-] [Carbadox]	> 45.8 µM	> 45.8 µM
CN1c2c([nH]c(N)nc2=O)NC[C@@H]1CNc1ccc(C(=O)N[C@@H](CCC(=O)O)C(=O)O)cc1 [Levomefolate calcium]	> 45.8 µM	> 45.8 µM
CN(C/C=C/C#CC(C)(C)C)Cc1cccc2ccccc12 [Terbinafine]	> 45.8 µM	> 45.8 µM
CC/C(=C(/CC)c1ccc(OP(=O)(O)O)cc1)c1ccc(OP(=O)(O)O)cc1 [Fosfestrol tetrasodium]	> 45.8 µM	> 45.8 µM
CCOC(=O)[C@H](CCc1ccccc1)N[C@@H](C)C(=O)N1CCC[C@H]1C(=O)O [Enalapril maleate]	> 45.8 µM	> 45.8 µM
C[C@]12CC[C@@H]3c4ccc(OC(=O)c5ccccc5)cc4CC[C@H]3[C@@H]1CC[C@@H]2O [ESTRADIOL BENZOATE]	> 45.8 µM	> 45.8 µM
CCCCNCC(O)c1ccc(O)cc1 (configuration not stated) [Bamethan]	> 45.8 µM	> 45.8 µM
Cc1ccccc1C(=O)Nc1ccc(C(=O)N2CCCC(O)c3cc(Cl)ccc32)c(C)c1 (configuration not stated) [Tolvaptan]	> 45.8 µM	> 45.8 µM
OC[C@H]1OC(O)[C@H](O)[C@@H](O)[C@@H]1O (some centres not stated) [DEXTROSE]	> 45.8 µM	> 45.8 µM
FC(F)(F)C(Cl)Br (configuration not stated) [HALOTHANE]	> 45.8 µM	> 45.8 µM
NC[C@H]1CC[C@H](C(=O)O)CC1 [TRANEXAMIC ACID]	> 45.8 µM	> 45.8 µM
CCCCC(=O)O[C@]1(C(=O)COC(C)=O)CC[C@H]2[C@@H]3CCC4=CC(=O)C=C[C@]4(C)[C@H]3[C@@H](O)C[C@@]21C [PREDNISOLONE VALERATE ACETATE]	> 45.8 µM	> 45.8 µM
CC[N+]1(C)[C@@H]2CC(OC(=O)[C@H](CO)c3ccccc3)C[C@H]1[C@@H]1O[C@@H]12 (some centres not stated) [Oxitropium Bromide]	> 45.8 µM	> 45.8 µM
CC(C)OC(=O)C(C)(C)Oc1ccc(C(=O)c2ccc(Cl)cc2)cc1 [Fenofibrate]	> 45.8 µM	> 45.8 µM
CNC[C@@H]1CC[C@@H](N)[C@@H](O[C@H]2[C@H](O)[C@@H](O[C@H]3OC[C@](C)(O)[C@H](NC)[C@H]3O)[C@H](N)C[C@@H]2N)O1 [Micronomicin sulfate]	> 45.8 µM	> 45.8 µM
